Results reported in patent US12729377B2, “RNAi agents and compositions for inhibiting expression of angiopoietin-like 3 (ANGPTL3), and methods of use” (Arrowhead Pharmaceuticals, Inc., priority 2017, dated 2026).
In the oligonucleotide strings, read from the 5' end, every base follows the letter of its sugar. An asterisk marks phosphorothioate; unmarked linkages are phosphodiester. Other units and linkages are bracketed, terminal groups are in braces. A string of capitals states the bases alone. {NAG37} = tridentate N-acetyl-galactosamine targeting ligand, structure (NAG37)s; [invAb] = inverted abasic unit; m = 2'-O-methyl; f = 2'-fluoro

Tests used:
ANGPTL3 gene [1] = assay: Example 6: serum HDL in mice; type: in vivo, C57bl/6 mice
Method: (§1) To assess the in vivo activity of additional ANGPTL3 RNAi agents that are designed to target position 304 on the ANGPTL3 gene, six- to eight-week-old female C57bl/6 mice were used. Pre-dose serum samples were taken at day −1 after a four hour fast. At day 1, each mouse was given a single subcutaneous administration of 200 μl containing 0.5 mg/kg (mpk) of an ANGPTL3 RNAi agent in D5W (dextrose in 5% water), or control (D5W) with no RNAi agent, according to the dosing groups recited in Table 25.
Each of the RNAi agents included a modified sequence and an N-acetyl-galactosamine-containing targeting ligand conjugated to the 5′ terminal end of the sense strand. (See Tables 3, 4, and 5 for modified sequences and targeting ligand structures). The injections were performed between the skin and muscle (i.e. subcutaneous injections) into the loose skin over the neck and shoulder area. Three (3) mice in each group were tested (n=3). Serum was collected on days 8, 15, 22, 30, and on day 43 for certain groups (i.e., Groups 1, 2, 5, and 10 only). Mice were fasted for four hours prior to each collection. ANGPTL3 protein levels in serum were measured by ELISA assay (R&D Systems), according to the manufacturer's recommendations. Triglycerides, total cholesterol, high-density lipoprotein (HDL), and low-density lipoprotein (LDL) in serum were measured on a Cobas® Integra 400 (Roche Diagnostics), according to the manufacturer's recommendations.
(§2) The ANGPTL3 protein levels, triglyceride levels, total cholesterol levels, HDL levels, and LDL levels for each animal were normalized. For normalization, the level of ANGPTL3 protein, triglyceride, HDL, and total cholesterol, respectively, for each animal at a time point, was divided by the pre-treatment level of expression in that animal (in this case at day −1) to determine the ratio of expression “normalized to pre-treatment.” Expression at a specific time point was then normalized to the D5W control group by dividing the “normalized to pre-treatment” ratio for an individual animal by the mean “normalized to pretreatment” ratio of all mice in the D5W control group.

ANGPTL3 gene [2] = assay: Example 10: serum HDL in mice; type: in vivo; conditions: 0.5 mg/kg single SC injection day 1, female C57bl/6 mice, n=3, ratio to D5W control
Method: as §1, with “further” for “additional”, “47.” for “25.”
Each of the RNAi agents included a modified sequence and an N-acetyl-galactosamine-containing targeting ligand conjugated to the 5′ terminal end of the sense strand. (See Tables 3, 4, and 5 for modified sequences and targeting ligand structures). As noted above, each of the ANGPTL3 RNAi agents dosed in this study included nucleotide sequences designed to target the ANGPTL3 gene at position 304. The injections were performed between the skin and muscle (i.e. subcutaneous injections) into the loose skin over the neck and shoulder area. Three (3) mice in each group were tested (n=3). Serum was collected on days 8, 15, 22, 29, and for some groups on day 36 (i.e., Groups 1, 2, and 9-13 only). Mice were fasted for four hours prior to each collection. ANGPTL3 protein levels in serum were measured by ELISA assay (R&D Systems), according to the manufacturer's recommendations. Triglycerides, total cholesterol, high-density lipoprotein (HDL), and low-density lipoprotein (LDL) in serum were measured on a Cobas® Integra 400 (Roche Diagnostics), according to the manufacturer's recommendations.
as §2

## AD05488: RNAi agent duplex: antisense AM07235-AS, sense AM07234-SS (antisense mU*fA*mC*fUmGfAmUfCmAfAmAfUmAfUmGfUmUfGmAfG*mC; sense {NAG37}*[invAb]*mGmCmUmCmAmAmCmAfUfAfUmUmUmGmAmUmCmAmGmUmA*[invAb])
ANGPTL3 gene [1]; Day 8, 0.5 mg/kg single SC injection on day 1, n=3
  Avg HDL, normalized to pre-treatment and control: 0.783
ANGPTL3 gene [1]; Day 15, 0.5 mg/kg single SC injection on day 1, n=3
  Avg HDL, normalized to pre-treatment and control: 0.763
ANGPTL3 gene [1]; Day 22, 0.5 mg/kg single SC injection on day 1, n=3
  Avg HDL, normalized to pre-treatment and control: 0.793
ANGPTL3 gene [1]; Day 30, 0.5 mg/kg single SC injection on day 1, n=3
  Avg HDL, normalized to pre-treatment and control: 0.956
ANGPTL3 gene [1]; Day 43, 0.5 mg/kg single SC injection on day 1, n=3
  Avg HDL, normalized to pre-treatment and control: 1.088
ANGPTL3 gene [2]; Day 8
  Average HDL Normalized to Pre-Treatment and Control: 0.648
ANGPTL3 gene [2]; Day 15
  Average HDL Normalized to Pre-Treatment and Control: 0.807
ANGPTL3 gene [2]; Day 22
  Average HDL Normalized to Pre-Treatment and Control: 0.733
ANGPTL3 gene [2]; Day 29
  Average HDL Normalized to Pre-Treatment and Control: 0.746
ANGPTL3 gene [2]; Day 36
  Average HDL Normalized to Pre-Treatment and Control: 0.816
